Assays:
[1] = tested on: neuroprogenitor cells derived from human embryonic stem cells; test: Differentiation of neuroprogenitor cells into TH positive (dopaminergic) neurons, immunofluorescence; assay type: cell-based; conditions: present in the Neurobasal medium
Description: Development of dopaminergic neurons in vivo depends on the regulated action of extracellular signaling molecules. These molecules activate a cascade of transcription factors with lineage-restricted expression. These transcription factors are responsible for increasing the expression of a specific set of genes involved in the development of the dopaminergic phenotype. To encourage the expanded neuroprogenitors cells generated using the above protocol into functional dopaminergic neurons, the growth factors bFGF and EGF were first withdrawn from the cells. Next, differentiation of the neuroprogenitors cells into dopaminergic neurons was induced by culturing the cells in Neurobasal medium for 30-50 days. […]
The differentiated neuronal cell types generated according to the present disclosure were evaluated both by the overall morphology of the cells, as well as the phenotypes identified by immunoflourescence. […]
The differentiated cells were also analyzed by double-labeling the cells with primary antibodies to TH (green), along with MAP-2, DAT, Nurr-1, β-Tubulin, FITC-labeled secondary antibodies (Texas red) respectively (FIG. 8). […] The cell density of dopaminergic neurons was quantified by counting the numbers of TH-positive cells and MAP-2-positive cells per field in randomly selected fields using a 40× objective lens. The percent proportion of TH-positive cells was calculated (FIG. 9). […]

[2] = tested on: embryonic stem cell-derived dopaminergic neurons; test: Intracellular dopamine in cell lysates by RP-HPLC; assay type: cell-based, human; conditions: for Dopamine concentration in cell lysates by HPLC: 56 mM KCl
Experimental: One definitive characteristic of a dopaminergic neuron is the production of dopamine. Therefore, the functional capacity of embryonic stem cell-derived dopaminergic neurons to produce dopamine was evaluated by directly measuring the intracellular dopamine levels using Reverse Phase HPLC (RP-HPLC). The concentration of dopamine detected in each sample was determined by comparison with a standard solution of dopamine injected into the column immediately before and after each experiment.
(§1) To begin, cells were collected at different stages of the disclosed method: undifferentiated ES cells, embryoid bodies, Nestin-positive neuroprogenitor cells, NCAM-positive cells, and differentiated cells isolated after 7, 22, and 37 days of differentiation in Neurobasal medium. Before collection, the cells differentiated in Neurobasal medium were first stimulated to induce dopamine secretion by the addition of 56 mM KCl in HBSS for 15 minutes. Approximately 5×10^6 cells were trypsinised and pelleted by centrifugation. The cells were then sonicated in cold 1N perchloric acid with antioxidants (0.2 g/l sodium metabisulphite), and centrifuged at 15,000 rpm/min for 20 minutes at 4° C. The supematent was extracted and stored at −70° C. for subsequent determination of the intracellular dopamine concentration by RP-HPLC. Dopamine levels were determined in the cell lysates and culture supematent (48 hrs after the last medium change). The culture supematent was immediately stabilized with 7.5% orthophosphoric acid and sodium metabisulphite.

[3] = tested on: embryonic stem cell-derived dopaminergic neurons; test: Dopamine release into conditioned medium by RP-HPLC; assay type: cell-based, human; conditions: 56 mM for 15 minutes, 7, 22, 37 days of differentiation
Experimental: The cells were stimulated with 56 mM KCl for 15 minutes to induce secretion of dopamine; the culture supernatant was stabilized with 7.5% orthrophosphoric acid and sodium metabisulphite before analysis by RP-HPLC.
as §1

[4] = tested on: embryonic stem cell-derived dopaminergic neurons; test: Intracellular dopamine in cell lysates by RP-HPLC; assay type: cell-based, human; conditions: cell cultures incubated with the neurotoxin

IL-1β: Interleukin-1β, growth factor in the Neurobasal medium
effect on amount of TH positive neurons [1]: appears to increase the amount of TH positive neurons

[Cl-].[K+] [KCl]
Dopamine concentration in cell lysates by HPLC ([2]; 7 d, line #3, after 'Addition of growth factors'): 5.5 µg/mL
Dopamine concentration in cell lysates by HPLC ([2]; 7 d, line #5, after 'N-acetyl cysteine along with growth factors'): 8.8 µg/mL
Dopamine concentration in cell lysates by HPLC ([2]; 7 d, line #7, after 'Ascorbic acid along with growth factors'): 6.9 µg/mL
Dopamine concentration in cell lysates by HPLC ([2]; 22 d, line #3, after 'Addition of growth factors'): 22 µg/mL
Dopamine concentration in cell lysates by HPLC ([2]; 22 d, line #5, after 'N-acetyl cysteine along with growth factors'): 30.9 µg/mL
Dopamine concentration in cell lysates by HPLC ([2]; 22 d, line #7, after 'Ascorbic acid along with growth factors'): 5.5 µg/mL
Dopamine concentration in cell lysates by HPLC ([2]; 37 d, line #3, after 'Addition of growth factors'): 7.2 µg/mL
Dopamine concentration in cell lysates by HPLC ([2]; 37 d, line #5, after 'N-acetyl cysteine along with growth factors'): 10 µg/mL
Dopamine concentration in cell lysates by HPLC ([2]; 37 d, line #7, after 'Ascorbic acid along with growth factors'): 10 µg/mL
dopamine release into the conditioned medium (FIG. 14) [3]: causes dopamine release
dopamine release into the conditioned medium (FIG. 14) ([3]; listed as KCL): increase

CN1CC=C(c2ccccc2)CC1.Cl [MPTP, N-methyl-4-phenyl 1,2,3,6-tetrahydropyridine hydrochloride]
intracellular dopamine in cell lysates of treated cells (FIG. 13) ([2]; 7 days of differentiation): No dopamine was detected
intracellular dopamine in cell lysates of treated cells (FIG. 13) ([2]; 22 days of differentiation): No dopamine was detected
intracellular dopamine in cell lysates of treated cells (FIG. 13) ([2]; 37 days of differentiation): reduced
dopamine in cell lysates of incubated cell cultures by RP-HPLC [4]: no dopamine was detected
